Assay results as given in PubChem BioAssay AID1963858 (Molecular Pharmacology Branch, DTP, NCI, 2024).

Test system: HOP-62 multicell spheroids with HUVEC/MSC, viability
Assay: Anticancer human tumor HOP-62 cell line growth inhibition [KRAS2];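 note: viability read after a week of compound exposure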;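 for viability, T/C: 100% = DMSO vehicle-treated spheroids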
Conditions: for IC50: curve of first compound; for viability, T/C: stronger effect = lower value
Outline: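 Combination screen of spheroid viability in tumor-cell co-cultures with endothelial (HUVEC) and mesenchymal stem cell stroma. Each agent was tested in half-log dilutions, topping at clinical Cmax or at 10 microM without a known Cmax.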

[1] = second compound 0.0316 µM, first compound 0.000316 µM
[2] = second compound 0.0316 µM, first compound 0.001 µM
[3] = second compound 0.0316 µM, first compound 0.00316 µM
[4] = second compound 0.0316 µM, first compound 0.01 µM
[5] = second compound 0.0316 µM, first compound 0.0316 µM
[6] = second compound 0.1 µM, first compound 0.000316 µM
[7] = second compound 0.1 µM, first compound 0.001 µM
[8] = second compound 0.1 µM, first compound 0.00316 µM
[9] = second compound 0.1 µM, first compound 0.01 µM
[10] = second compound 0.1 µM, first compound 0.0316 µM
[11] = second compound 0.316 µM, first compound 0.000316 µM
[12] = second compound 0.316 µM, first compound 0.001 µM
[13] = second compound 0.316 µM, first compound 0.00316 µM
[14] = second compound 0.316 µM, first compound 0.01 µM
[15] = second compound 0.316 µM, first compound 0.0316 µM
[16] = second compound 1 µM, first compound 0.000316 µM
[17] = second compound 1 µM, first compound 0.001 µM
[18] = second compound 1 µM, first compound 0.00316 µM
[19] = second compound 1 µM, first compound 0.01 µM
[20] = second compound 1 µM, first compound 0.0316 µM
[21] = second compound 3.16 µM, first compound 0.000316 µM
[22] = second compound 3.16 µM, first compound 0.001 µM
[23] = second compound 3.16 µM, first compound 0.00316 µM
[24] = second compound 3.16 µM, first compound 0.01 µM
[25] = second compound 3.16 µM, first compound 0.0316 µM
[26] = second compound 0.0316 µM, first compound 0.1 µM
[27] = second compound 0.1 µM, first compound 0.1 µM
[28] = second compound 0.316 µM, first compound 0.1 µM
[29] = second compound 1 µM, first compound 0.1 µM
[30] = second compound 3.16 µM, first compound 0.1 µM

## CC(=O)Nc1cccc(-n2c(=O)n(C3CC3)c(=O)c3c(Nc4ccc(I)cc4F)n(C)c(=O)c(C)c32)c1 + C=CC(=O)N1CCN(c2nc(OCC3CCCN3C)nc3c2CCN(c2cccc4cccc(C)c24)C3)CC1CC#N
Second compound 0.0316 µM
  IC50: 1490 pM
Second compound 0.1 µM
  IC50: 1010 pM
Second compound 0.316 µM
  IC50: 406 pM
Second compound 1 µM
  IC50: < 100 pM
Second compound 3.16 µM
  IC50: < 100 pM
Second compound 0.0316 µM, first compound 0.0001 µM
  viability, T/C: 83.2%
[1]
  viability, T/C: 75%
[2]
  viability, T/C: 56.2%
[3]
  viability, T/C: 38.9%
[4]
  viability, T/C: 23.4%
[5]
  viability, T/C: 25.5%
Second compound 0.1 µM, first compound 0.0001 µM
  viability, T/C: 64.8%
[6]
  viability, T/C: 60.9%
[7]
  viability, T/C: 50.5%
[8]
  viability, T/C: 27.4%
[9]
  viability, T/C: 19.4%
[10]
  viability, T/C: 24.3%
Second compound 0.316 µM, first compound 0.0001 µM
  viability, T/C: 52.3%
[11]
  viability, T/C: 53.6%
[12]
  viability, T/C: 40%
[13]
  viability, T/C: 18.4%
[14]
  viability, T/C: 15.7%
[15]
  viability, T/C: 17.3%
Second compound 1 µM, first compound 0.0001 µM
  viability, T/C: 34.4%
[16]
  viability, T/C: 28.1%
[17]
  viability, T/C: 18%
[18]
  viability, T/C: 15%
[19]
  viability, T/C: 12.5%
[20]
  viability, T/C: 12.5%
Second compound 3.16 µM, first compound 0.0001 µM
  viability, T/C: 18.2%
[21]
  viability, T/C: 1.3%
[22]
  viability, T/C: 9.7%
[23]
  viability, T/C: 12.7%
[24]
  viability, T/C: 1.72%
[25]
  viability, T/C: 1.33%

## CC(C)n1nc(-c2ccc3oc(N)nc3c2)c2c(N)ncnc21 + C=CC(=O)N1CCN(c2nc(OCC3CCCN3C)nc3c2CCN(c2cccc4cccc(C)c24)C3)CC1CC#N
Second compound 0.0316 µM
  IC50: 471 pM
Second compound 0.1 µM
  IC50: < 316 pM
Second compound 0.316 µM
  IC50: < 316 pM
Second compound 1 µM
  IC50: < 316 pM
Second compound 3.16 µM
  IC50: < 316 pM
[1]
  viability, T/C: 57.1%
[2]
  viability, T/C: 37%
[3]
  viability, T/C: 23.5%
[4]
  viability, T/C: 17.5%
[5]
  viability, T/C: 12.1%
[26]
  viability, T/C: 9.28%
[6]
  viability, T/C: 36.3%
[7]
  viability, T/C: 30.6%
[8]
  viability, T/C: 14.9%
[9]
  viability, T/C: 12.8%
[10]
  viability, T/C: 11%
[27]
  viability, T/C: 8.68%
[11]
  viability, T/C: 29.9%
[12]
  viability, T/C: 19.6%
[13]
  viability, T/C: 14.9%
[14]
  viability, T/C: 10.6%
[15]
  viability, T/C: 8.56%
[28]
  viability, T/C: 7.08%
[16]
  viability, T/C: 23.1%
[17]
  viability, T/C: 16.1%
[18]
  viability, T/C: 13.3%
[19]
  viability, T/C: 9.5%
[20]
  viability, T/C: 7.25%
[29]
  viability, T/C: 5.88%
[21]
  viability, T/C: 5%
[22]
  viability, T/C: 0.34%
[23]
  viability, T/C: 2.87%
[24]
  viability, T/C: 0.44%
[25]
  viability, T/C: 0.63%
[30]
  viability, T/C: 0.48%

## COC(=O)c1ccc2c(C(=Nc3ccc(N(C)C(=O)CN4CCN(C)CC4)cc3)c3ccccc3)c(O)[nH]c2c1 + C=CC(=O)N1CCN(c2nc(OCC3CCCN3C)nc3c2CCN(c2cccc4cccc(C)c24)C3)CC1CC#N
Second compound 0.0316 µM
  IC50: < 31600 pM
Second compound 0.1 µM
  IC50: < 31600 pM
Second compound 0.316 µM
  IC50: < 31600 pM
Second compound 1 µM
  IC50: < 31600 pM
Second compound 3.16 µM
  IC50: < 31600 pM
[5]
  viability, T/C: 42.5%
[26]
  viability, T/C: 36.9%
Second compound 0.0316 µM, first compound 0.316 µM
  viability, T/C: 28.2%
Second compound 0.0316 µM, first compound 1 µM
  viability, T/C: 26.6%
Second compound 0.0316 µM, first compound 3.16 µM
  viability, T/C: 25.1%
Second compound 0.0316 µM, first compound 10 µM
  viability, T/C: 7.5%
[10]
  viability, T/C: 30%
[27]
  viability, T/C: 32.6%
Second compound 0.1 µM, first compound 0.316 µM
  viability, T/C: 21.7%
Second compound 0.1 µM, first compound 1 µM
  viability, T/C: 23%
Second compound 0.1 µM, first compound 3.16 µM
  viability, T/C: 20.5%
Second compound 0.1 µM, first compound 10 µM
  viability, T/C: 8.85%
[15]
  viability, T/C: 25.7%
[28]
  viability, T/C: 21.7%
Second compound 0.316 µM, first compound 0.316 µM
  viability, T/C: 24.1%
Second compound 0.316 µM, first compound 1 µM
  viability, T/C: 21.7%
Second compound 0.316 µM, first compound 3.16 µM
  viability, T/C: 20%
Second compound 0.316 µM, first compound 10 µM
  viability, T/C: 1.11%
[20]
  viability, T/C: 26.5%
[29]
  viability, T/C: 19.2%
Second compound 1 µM, first compound 0.316 µM
  viability, T/C: 19.7%
Second compound 1 µM, first compound 1 µM
  viability, T/C: 17.8%
Second compound 1 µM, first compound 3.16 µM
  viability, T/C: 8.02%
Second compound 1 µM, first compound 10 µM
  viability, T/C: 0.28%
[25]
  viability, T/C: 6.95%
[30]
  viability, T/C: 3.11%
Second compound 3.16 µM, first compound 0.316 µM
  viability, T/C: 20.2%
Second compound 3.16 µM, first compound 1 µM
  viability, T/C: 0.09%
Second compound 3.16 µM, first compound 3.16 µM
  viability, T/C: 0.09%
Second compound 3.16 µM, first compound 10 µM
  viability, T/C: 0.95%
